The results in this text go back to patent publication US9567341B2, “Pyrrolopyrimidine derivatives as NR2B NMDA receptor antagonists” (Rugen Holdings (Cayman) Limited, priority 2014, dated 2017).

pIC50: −log10 of the molar value. Where two headings read alike, the source gives them in different places.

The target in one series is human NR1/NR2B (Homo sapiens (Human), UniProt Q13224). Nature of the series: NR2B antagonist activity (Fluo-4 calcium influx assay). The format is cell-based.
The target in the next series is human NR1/NR2A (Homo sapiens (Human), UniProt Q05586+Q12879). In words: NR2A activity (Fluo-4 calcium influx assay). It is filed as cell-based.
The target in the next series is CYP2D6 (Homo sapiens (Human), UniProt P10635). In words: CYP P450 enzyme inhibition in pooled human liver microsome. The following applies: read-out: CYP2D6 IC50, dextromethorphan 5 μM. (Liver microsomes are vesicles of endoplasmic reticulum, rich in cytochrome P450 enzymes.)
A further series addresses hERG channel (Homo sapiens (Human), UniProt Q12809). The following applies: pH 7.35.
Another series relates to Rats. Nature of the series: Electroconvulsive threshold (ECT) test. The format is in vivo, rat. The following applies: p.o. 60 minutes before ECS, theophylline 128 mg/kg, diazepam 16 mg/kg.
Another series concerns Male mice (strain NLMN). Nature of the series: Forced swim test. It is filed as in vivo, mouse. The following applies: intraperitoneal, imipramine 32 mg/kg IP.
Setting [1] is: HEK293 cells stably expressing human NR1/NR2B, glutamate 100 μM, glycine 50 μM, read-out: NR2B IC50.
Where [2] appears, read: as printed in the CYP2D6 table, read-out: NR2B IC50.
[3] abbreviates: HEK293 cells stably expressing human NR1/NR2A, glutamate 100 μM, glycine 50 μM, read-out: NR2A IC50.

Chain of human NR1/NR2A (Q12879 23-1464, other chains not shown): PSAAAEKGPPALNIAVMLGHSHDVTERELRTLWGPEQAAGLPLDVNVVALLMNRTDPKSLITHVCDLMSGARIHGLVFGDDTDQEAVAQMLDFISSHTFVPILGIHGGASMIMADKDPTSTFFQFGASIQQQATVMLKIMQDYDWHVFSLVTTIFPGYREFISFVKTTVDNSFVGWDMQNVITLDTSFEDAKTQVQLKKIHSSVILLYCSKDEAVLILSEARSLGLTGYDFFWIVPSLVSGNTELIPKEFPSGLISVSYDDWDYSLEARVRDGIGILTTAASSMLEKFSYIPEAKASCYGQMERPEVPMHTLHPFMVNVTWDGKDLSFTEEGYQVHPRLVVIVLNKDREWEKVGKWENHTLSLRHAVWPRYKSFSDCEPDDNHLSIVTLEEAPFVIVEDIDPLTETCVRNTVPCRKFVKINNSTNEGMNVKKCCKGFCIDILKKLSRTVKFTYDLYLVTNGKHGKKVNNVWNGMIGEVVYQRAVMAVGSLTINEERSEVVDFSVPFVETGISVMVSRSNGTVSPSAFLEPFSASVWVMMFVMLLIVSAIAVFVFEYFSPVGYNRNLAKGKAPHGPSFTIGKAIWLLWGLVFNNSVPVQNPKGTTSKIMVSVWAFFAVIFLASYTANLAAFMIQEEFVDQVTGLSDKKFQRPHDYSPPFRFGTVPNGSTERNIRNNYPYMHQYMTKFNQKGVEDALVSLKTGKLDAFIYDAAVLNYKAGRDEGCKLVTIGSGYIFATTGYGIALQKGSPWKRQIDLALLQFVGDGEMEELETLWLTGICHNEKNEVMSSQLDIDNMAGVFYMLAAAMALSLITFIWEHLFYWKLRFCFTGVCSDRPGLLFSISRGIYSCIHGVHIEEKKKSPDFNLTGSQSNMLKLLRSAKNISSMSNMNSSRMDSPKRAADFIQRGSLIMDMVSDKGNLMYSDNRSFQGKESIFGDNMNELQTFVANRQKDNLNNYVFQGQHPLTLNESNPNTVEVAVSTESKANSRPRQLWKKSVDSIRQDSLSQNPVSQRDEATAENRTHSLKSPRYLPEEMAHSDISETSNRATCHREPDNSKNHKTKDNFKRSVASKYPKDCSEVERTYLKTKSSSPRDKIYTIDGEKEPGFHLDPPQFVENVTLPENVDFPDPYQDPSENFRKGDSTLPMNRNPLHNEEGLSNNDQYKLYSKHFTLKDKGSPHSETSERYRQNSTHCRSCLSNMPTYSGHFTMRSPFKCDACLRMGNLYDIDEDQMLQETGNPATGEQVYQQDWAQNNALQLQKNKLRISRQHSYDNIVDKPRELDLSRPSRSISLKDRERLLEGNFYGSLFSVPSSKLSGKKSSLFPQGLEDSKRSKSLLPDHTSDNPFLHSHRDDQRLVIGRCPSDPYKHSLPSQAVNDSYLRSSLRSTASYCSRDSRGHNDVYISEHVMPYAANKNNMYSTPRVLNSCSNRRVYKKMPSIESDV
Chain of human NR1/NR2B (Q13224 27-1484, other chains not shown): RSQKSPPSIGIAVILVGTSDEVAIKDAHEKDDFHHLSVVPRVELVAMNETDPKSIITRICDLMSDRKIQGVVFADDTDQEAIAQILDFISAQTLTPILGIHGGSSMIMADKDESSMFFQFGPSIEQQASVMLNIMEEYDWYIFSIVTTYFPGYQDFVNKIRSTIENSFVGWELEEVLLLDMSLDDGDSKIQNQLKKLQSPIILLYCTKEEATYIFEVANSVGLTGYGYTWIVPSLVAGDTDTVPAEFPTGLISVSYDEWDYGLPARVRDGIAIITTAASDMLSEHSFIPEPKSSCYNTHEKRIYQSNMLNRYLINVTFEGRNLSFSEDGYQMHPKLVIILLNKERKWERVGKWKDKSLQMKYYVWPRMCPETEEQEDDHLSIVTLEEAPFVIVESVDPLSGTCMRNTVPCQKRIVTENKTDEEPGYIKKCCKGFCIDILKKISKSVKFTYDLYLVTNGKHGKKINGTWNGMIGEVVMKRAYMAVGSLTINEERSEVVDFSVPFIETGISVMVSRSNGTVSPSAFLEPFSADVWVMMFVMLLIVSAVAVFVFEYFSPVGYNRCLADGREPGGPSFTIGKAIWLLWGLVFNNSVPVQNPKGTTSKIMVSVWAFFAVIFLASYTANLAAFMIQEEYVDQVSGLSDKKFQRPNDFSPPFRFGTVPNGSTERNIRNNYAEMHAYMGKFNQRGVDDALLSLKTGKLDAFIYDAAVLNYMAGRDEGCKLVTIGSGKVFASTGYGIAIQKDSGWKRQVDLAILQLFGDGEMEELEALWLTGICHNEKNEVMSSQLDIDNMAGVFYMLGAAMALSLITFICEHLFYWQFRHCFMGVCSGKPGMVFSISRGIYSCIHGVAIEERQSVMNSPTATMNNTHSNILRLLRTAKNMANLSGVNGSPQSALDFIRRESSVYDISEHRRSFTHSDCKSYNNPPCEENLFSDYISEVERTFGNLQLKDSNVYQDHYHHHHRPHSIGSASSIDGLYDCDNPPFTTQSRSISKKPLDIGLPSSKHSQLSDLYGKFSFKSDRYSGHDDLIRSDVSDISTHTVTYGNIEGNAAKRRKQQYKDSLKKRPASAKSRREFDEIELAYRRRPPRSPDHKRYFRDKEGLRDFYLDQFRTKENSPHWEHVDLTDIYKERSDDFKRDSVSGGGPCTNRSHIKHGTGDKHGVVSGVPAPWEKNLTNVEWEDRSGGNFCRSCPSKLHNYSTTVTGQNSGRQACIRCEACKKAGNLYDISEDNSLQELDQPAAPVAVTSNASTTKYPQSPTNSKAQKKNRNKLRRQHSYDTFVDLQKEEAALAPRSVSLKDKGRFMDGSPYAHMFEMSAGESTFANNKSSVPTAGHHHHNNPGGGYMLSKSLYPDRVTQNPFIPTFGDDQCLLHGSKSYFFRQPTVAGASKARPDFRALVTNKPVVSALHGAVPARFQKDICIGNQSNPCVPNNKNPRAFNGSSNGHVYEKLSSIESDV
Chain of hERG channel (Q12809 whole entry): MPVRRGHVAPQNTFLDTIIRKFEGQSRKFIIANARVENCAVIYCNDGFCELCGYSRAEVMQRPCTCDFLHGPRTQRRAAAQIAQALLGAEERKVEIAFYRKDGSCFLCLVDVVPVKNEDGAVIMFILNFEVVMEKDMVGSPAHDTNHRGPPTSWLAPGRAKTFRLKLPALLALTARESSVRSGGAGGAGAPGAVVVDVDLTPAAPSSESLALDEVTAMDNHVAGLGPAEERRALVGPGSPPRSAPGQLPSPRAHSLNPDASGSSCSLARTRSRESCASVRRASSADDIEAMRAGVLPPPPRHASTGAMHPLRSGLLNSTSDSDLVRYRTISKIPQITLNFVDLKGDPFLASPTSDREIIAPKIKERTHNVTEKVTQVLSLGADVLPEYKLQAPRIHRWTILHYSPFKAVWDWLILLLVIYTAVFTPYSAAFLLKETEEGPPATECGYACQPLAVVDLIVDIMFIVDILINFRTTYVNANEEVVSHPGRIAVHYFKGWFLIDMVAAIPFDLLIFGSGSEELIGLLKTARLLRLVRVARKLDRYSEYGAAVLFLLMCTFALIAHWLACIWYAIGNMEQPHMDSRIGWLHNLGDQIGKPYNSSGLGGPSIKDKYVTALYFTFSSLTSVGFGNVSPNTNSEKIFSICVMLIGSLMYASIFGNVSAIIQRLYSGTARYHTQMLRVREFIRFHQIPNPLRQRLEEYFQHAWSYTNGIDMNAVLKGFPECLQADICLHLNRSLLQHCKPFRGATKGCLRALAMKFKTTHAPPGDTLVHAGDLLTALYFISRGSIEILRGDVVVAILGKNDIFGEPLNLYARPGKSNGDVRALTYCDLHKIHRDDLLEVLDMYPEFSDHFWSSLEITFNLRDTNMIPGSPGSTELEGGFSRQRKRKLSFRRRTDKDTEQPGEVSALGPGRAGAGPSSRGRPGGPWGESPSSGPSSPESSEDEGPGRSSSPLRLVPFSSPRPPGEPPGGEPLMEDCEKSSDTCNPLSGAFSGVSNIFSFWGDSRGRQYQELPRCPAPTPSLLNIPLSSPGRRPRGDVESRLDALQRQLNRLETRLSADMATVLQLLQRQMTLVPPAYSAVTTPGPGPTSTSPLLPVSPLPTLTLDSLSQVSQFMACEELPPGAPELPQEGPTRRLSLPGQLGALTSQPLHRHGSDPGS
Chain of CYP2D6 (P10635 whole entry): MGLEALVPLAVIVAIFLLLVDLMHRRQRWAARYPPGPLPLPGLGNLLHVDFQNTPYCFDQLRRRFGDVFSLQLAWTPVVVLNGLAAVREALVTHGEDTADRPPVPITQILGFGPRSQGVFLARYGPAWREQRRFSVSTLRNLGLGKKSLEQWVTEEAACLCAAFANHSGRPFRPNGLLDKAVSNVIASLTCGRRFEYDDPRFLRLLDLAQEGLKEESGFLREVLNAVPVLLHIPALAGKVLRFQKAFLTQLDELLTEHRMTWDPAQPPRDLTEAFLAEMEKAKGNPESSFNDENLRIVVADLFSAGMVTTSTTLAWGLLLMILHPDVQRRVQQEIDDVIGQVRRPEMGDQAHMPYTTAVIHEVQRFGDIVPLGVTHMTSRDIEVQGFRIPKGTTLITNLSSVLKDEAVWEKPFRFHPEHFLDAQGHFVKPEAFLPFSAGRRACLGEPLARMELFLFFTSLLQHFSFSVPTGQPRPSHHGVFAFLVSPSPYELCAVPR

A word on the pIC50: it is the IC50 on a negative log10 scale, so that one unit is a factor of ten. As to `Fc1ccc(C(F)(F)CN2CCC(Nc3ncnc4[nH]ccc34)CC2)nc1` [Compound C-2, N-(1-(2,2-difluoro-2-(5-fluoropyridin-2-yl)ethyl)piperidin-4-yl)-7H-pyrrolo[2,3-d]-pyrimidin-4-amine], the pIC50 at human NR1/NR2B (read-out: NR2B IC50) is 6.91; at human NR1/NR2A, less than 5.00.

Take `FC(F)(CN1CCC(Nc2ncnc3[nH]ccc23)CC1)c1ccc(Cl)cn1` [Compound C-3, N-(1-(2-(5-chloropyridin-2-yl)-2,2-difluoroethyl)piperidin-4-yl)-7H-pyrrolo-[2,3-d]pyrimidin-4-amine]: the pIC50 on CYP2D6 was 4.92; on hERG channel, 5.15; at human NR1/NR2A, less than 5.00.

Take `Cc1ccc(C(F)(F)CN2CCC(Nc3ncnc4[nH]ccc34)CC2)nc1` [Compound C-4, N-(1-(2,2-difluoro-2-(5-methylpyridin-2-yl)ethyl)piperidin-4-yl)-7H-pyrrolo[2,3-d]pyrimidin-4-amine]: the negative logarithm of the IC50 (pIC50) was 7.46 at human NR1/NR2B (read-out: NR2B IC50), 7.46 at human NR1/NR2B (read-out: hNR2B IC50), 4.94 against hERG channel and less than 5.00 on human NR1/NR2A.

For `FC(F)(F)c1ccc(C(F)(F)CN2CCC(Nc3ncnc4[nH]ccc34)CC2)nc1` [Compound C-5, N-(1-(2,2-difluoro-2-(5-(trifluoromethyl)pyridin-2-yl)ethyl)piperidin-4-yl)-7H-pyrrolo[2,3-d]pyrimidin-4-amine], the pIC50 was 7.52 on human NR1/NR2B (setting [1]); 7.52 on human NR1/NR2B (setting [2]); 7.52 on human NR1/NR2B (as printed in the hERG table, read-out: hNR2B IC50); 4.48 on CYP2D6; 5.02 against hERG channel.

As to `FC(F)c1ccc(C(F)(F)CN2CCC(Nc3ncnc4[nH]ccc34)CC2)nc1` [Compound C-6, N-(1-(2-(5-(difluoromethyl)pyridin-2-yl)-2,2-difluoroethyl)piperidin-4-yl)-7H-pyrrolo[2,3-d]pyrimidin-4-amine], the pIC50 on human NR1/NR2B (setting [1]) was 7.51.

Take `FCc1ccc(C(F)(F)CN2CCC(Nc3ncnc4[nH]ccc34)CC2)nc1` [Compound C-7, N-(1-(2,2-difluoro-2-(5-(fluoromethyl)pyridin-2-yl)ethyl)piperidin-4-yl)-7H-pyrrolo[2,3-d]pyrimidin-4-amine]: the pIC50 was 7.85 on human NR1/NR2B (read-out: NR2B IC50) and less than 5.00 on human NR1/NR2A.

Regarding `FC(F)(F)Oc1ccc(C(F)(F)CN2CCC(Nc3ncnc4[nH]ccc34)CC2)nc1` [Compound C-11, N-(1-(2,2-difluoro-2-(5-(trifluoromethoxy)pyridin-2-yl)ethyl)piperidin-4-yl)-7H-pyrrolo[2,3-d]pyrimidin-4-amine], the negative logarithm of the IC50 (pIC50) at human NR1/NR2B (setting [1]) is 7.37.

For `Fc1cc(Cl)cnc1C(F)(F)CN1CCC(Nc2ncnc3[nH]ccc23)CC1` [Compound C-16, N-(1-(2-(5-chloro-3-fluoropyridin-2-yl)-2,2-difluoroethyl)piperidin-4-yl)-7H-pyrrolo[2,3-d]pyrimidin-4-amine], the results for the negative-log IC50 (pIC50) at human NR1/NR2B (read-out: NR2B IC50) and on human NR1/NR2A were 7.33 and less than 5.00, respectively.

As to `Cc1cnc(C(F)(F)CN2CCC(Nc3ncnc4[nH]ccc34)CC2)c(F)c1` [Compound C-17, N-(1-(2,2-difluoro-2-(3-fluoro-5-methylpyridin-2-yl)ethyl)piperidin-4-yl)-7H-pyrrolo[2,3-d]pyrimidin-4-amine], the negative-log IC50 (pIC50) at human NR1/NR2B (read-out: NR2B IC50) was 7.36; at human NR1/NR2A, less than 5.00.

For the compound `Fc1cc(C(F)(F)F)cnc1C(F)(F)CN1CCC(Nc2ncnc3[nH]ccc23)CC1` [Compound C-18, N-(1-(2,2-difluoro-2-(3-fluoro-5-(trifluoromethyl)pyridin-2-yl)-ethyl)piperidin-4-yl)-7H-pyrrolo[2,3-d]pyrimidin-4-amine], the negative-log IC50 (pIC50) at human NR1/NR2B (setting [1]) is 7.08.

For the compound `Cc1ccc(C(F)(F)CN2CCC(N(C)c3ncnc4[nH]ccc34)CC2)nc1` [Compound C-47, N-(1-(2,2-difluoro-2-(5-methylpyridin-2-yl)ethyl)piperidin-4-yl)-N-methyl-7H-pyrrolo[2,3-d]pyrimidin-4-amine], the pIC50 was 6.85 on human NR1/NR2B (read-out: NR2B IC50) and less than 5.00 on human NR1/NR2A.

Turning to `Cc1ccc(C(F)(F)CN2CCC(Nc3ncnc4[nH]ccc34)CC2)cn1` [Compound C-128, N-(1-(2,2-difluoro-2-(6-methylpyridin-3-yl)ethyl)piperidin-4-yl)-7H-pyrrolo-[2,3-d]pyrimidin-4-amine], the pIC50 at human NR1/NR2B (read-out: NR2B IC50) was 7.05; at human NR1/NR2B (read-out: hNR2B IC50), 7.05; against hERG channel it was 4.55; on human NR1/NR2A, less than 5.00.

On to `Fc1ccc(C(F)(F)CN2CCC(Nc3ncnc4[nH]ccc34)CC2)cc1` [Compound C-175, N-(1-(2,2-difluoro-2-(4-fluorophenyl)ethyl)piperidin-4-yl)-7H-pyrrolo[2,3-d]-pyrimidin-4-amine], for which the negative logarithm of the IC50 (pIC50) on human NR1/NR2B (read-out: NR2B IC50) is 7.66; on human NR1/NR2B (read-out: hNR2B IC50), 7.66; on CYP2D6 it was 5.64; on hERG channel, 5.35; on human NR1/NR2A it was less than 5.00.

Consider `FC(F)(CN1CCC(Nc2ncnc3[nH]ccc23)CC1)c1ccc(Cl)cc1` [Compound C-176, N-(1-(2-(4-chlorophenyl)-2,2-difluoroethyl)piperidin-4-yl)-7H-pyrrolo[2,3-d]pyrimidin-4-amine], for which the pIC50 is 7.59 on human NR1/NR2B (read-out: NR2B IC50) and less than 5.00 on human NR1/NR2A.

With `Cc1ccc(C(F)(F)CN2CCC(Nc3ncnc4[nH]ccc34)CC2)cc1` [Compound C-177, N-(1-(2,2-difluoro-2-p-tolylethyl)piperidin-4-yl)-7H-pyrrolo[2,3-d]-pyrimidin-4-amine], the negative logarithm of the IC50 (pIC50) is 7.57 on human NR1/NR2B (read-out: NR2B IC50) and less than 5.00 at human NR1/NR2A.

As to `FC(F)(F)c1ccc(C(F)(F)CN2CCC(Nc3ncnc4[nH]ccc34)CC2)cc1` [Compound C-178, N-(1-(2,2-difluoro-2-(4-(trifluoromethyl)phenyl)ethyl)piperidin-4-yl)-7H-pyrrolo-[2,3-d]pyrimidin-4-amine], the pIC50 is 7.19 on human NR1/NR2B (setting [1]), 7.19 at human NR1/NR2B (setting [2]), 5.17 at CYP2D6 and less than 5.00 at human NR1/NR2A (setting [3]).

On to `FC(F)c1ccc(C(F)(F)CN2CCC(Nc3ncnc4[nH]ccc34)CC2)cc1` [Compound C-179, N-(1-(2-(4-(difluoromethyl)phenyl)-2,2-difluoroethyl)piperidin-4-yl)-7H-pyrrolo[2,3-d]pyrimidin-4-amine], for which the values for the negative logarithm of the IC50 (pIC50) at CYP2D6 and at human NR1/NR2A (setting [3]) were 5.31 and less than 5.00, respectively.

As for `Cc1cnc(C(F)(F)CN2CCC(Nc3ncnc4[nH]ccc34)CC2)cn1` [Compound C-230, N-(1-(2,2-difluoro-2-(5-methylpyrazin-2-yl)ethyl)piperidin-4-yl)-7H-pyrrolo[2,3-d]pyrimidin-4-amine], the pIC50 on human NR1/NR2B (read-out: NR2B IC50) was 7.06; at human NR1/NR2B (read-out: hNR2B IC50) it was 7.06; against hERG channel, 4.86; at human NR1/NR2A, less than 5.00.

Turning to `CN1C(=O)CN=C(c2ccccc2)c2cc(Cl)ccc21` [diazepam], in the series on Rats, the “pro-/anticonvulsant activity (electroconvulsive threshold)” value is “expected pro- and anticonvulsant activities”.

Consider `CN(C)CCCN1c2ccccc2CCc2ccccc21` [imipramine], for which the “antidepressant activity (immobility time)” value in the series with Male mice (strain NLMN) is recorded as “expected antidepressant activity”.

As to `Cn1c(=O)c2[nH]cnc2n(C)c1=O` [theophylline], the “pro-/anticonvulsant activity (electroconvulsive threshold)” value in the series on Rats was “expected pro- and anticonvulsant activities”.
